According to patent US8889668B2, “Oxadiazole diaryl compounds” (Merck Serono SA, priority 2007, dated 2014):

Target: S1P1 (Homo sapiens (Human), UniProt P21453)
Assay: 35S-GTPγS binding, membranes from CHO cells expressing S1P1
Assay type: biochemical
Details: 60 min 30° C., read-out: S1P1 GTPgS EC50

Sequence of S1P1 (P21453 whole entry, species assumed): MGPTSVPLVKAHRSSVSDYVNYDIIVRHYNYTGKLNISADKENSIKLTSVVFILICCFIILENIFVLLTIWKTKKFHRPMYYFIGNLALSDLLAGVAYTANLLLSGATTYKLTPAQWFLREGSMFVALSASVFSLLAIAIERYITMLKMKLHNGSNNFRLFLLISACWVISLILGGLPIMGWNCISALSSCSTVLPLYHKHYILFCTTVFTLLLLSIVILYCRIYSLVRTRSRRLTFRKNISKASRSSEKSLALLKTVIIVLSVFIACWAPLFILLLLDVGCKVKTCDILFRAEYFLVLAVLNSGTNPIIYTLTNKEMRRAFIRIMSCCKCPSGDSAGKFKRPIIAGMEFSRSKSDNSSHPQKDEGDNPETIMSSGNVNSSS

Compound	EC50
CN(c1ccc(-c2nc(-c3ccccc3OC(F)(F)F)no2)cc1[N+](=O)[O-])C1CCCCC1 [Compound I5, N-cyclohexyl-N-methyl-2-nitro-4-{3-[2-(trifluoromethoxy)phenyl]-1,2,4-oxadiazol-5-yl}aniline]	589 nM
COc1ccccc1-c1noc(-c2ccc(N3CCOCC3)c(N)c2)n1 [Compound I6, 5-[3-(2-methoxyphenyl)-1,2,4-oxadiazol-5-yl]-2-morpholin-4-ylaniline]	712 nM
CCOc1ccccc1-c1noc(-c2ccc(N3CCCCC3)c([N+](=O)[O-])c2)n1 [Compound I7, 1-{4-[3-(2-ethoxyphenyl)-1,2,4-oxadiazol-5-yl]-2-nitrophenyl}piperidine]	254 nM
O=[N+]([O-])c1cc(-c2nc(-c3ccccc3OC(F)(F)F)no2)ccc1N1CCCC(F)(F)C1 [Compound I11, 3,3-difluoro-1-(2-nitro-4-{3-[2-(trifluoromethoxy)phenyl]-1,2,4-oxadiazol-5-yl}phenyl)piperidine]	80 nM
COc1ccccc1-c1noc(-c2ccc(N3CCCC3)c([N+](=O)[O-])c2)n1 [Compound I13, 3-(2-methoxyphenyl)-5-(3-nitro-4-pyrrolidin-1-ylphenyl)-1,2,4-oxadiazole]	132 nM
O=[N+]([O-])c1cc(-c2nc(-c3ccccc3OC(F)(F)F)no2)ccc1N1CCCC1 [Compound I14, 5-(3-nitro-4-pyrrolidin-1-ylphenyl)-3-[2-(trifluoromethoxy)phenyl]-1,2,4-oxadiazole]	428 nM
O=[N+]([O-])c1cc(-c2nc(-c3ccccc3OC(F)(F)F)no2)ccc1N1CCCCCC1 [Compound I15, 1-(2-nitro-4-{3-[2-(trifluoromethoxy)phenyl]-1,2,4-oxadiazol-5-yl}phenyl)azepane]	1130 nM
COc1ccccc1-c1noc(-c2ccc(N3CCCCCC3)c([N+](=O)[O-])c2)n1 [Compound I16, 1-{4-[3-(2-methoxyphenyl)-1,2,4-oxadiazol-5-yl]-2-nitrophenyl}azepane]	228 nM
O=[N+]([O-])c1cc(-c2nc(-c3ccccc3OC(F)(F)F)no2)ccc1N1CCOCC1 [Compound I17, 4-(2-nitro-4-{3-[2-(trifluoromethoxy)phenyl]-1,2,4-oxadiazol-5-yl}phenyl)morpholine]	135 nM
COc1ccccc1-c1noc(-c2ccc(-c3ccccc3C(F)(F)F)c(C)c2)n1 [Compound I24, 3-(2-methoxyphenyl)-5-[2-methyl-2′-(trifluoromethyl)biphenyl-4-yl]-1,2,4-oxadiazole]	57 nM
CC(C)Cc1ccc(-c2nc(-c3ccccc3OC(F)(F)F)no2)cc1 [Compound I30, 5-(4-isobutylphenyl)-3-[2-(trifluoromethoxy)phenyl]-1,2,4-oxadiazole]	64 nM
O=[N+]([O-])c1cc(-c2nc(-c3ccccc3OC(F)(F)F)no2)ccc1N1CCCCC1 [Compound I31, 1-(2-nitro-4-{3-[2-(trifluoromethoxy)phenyl]-1,2,4-oxadiazol-5-yl}phenyl)piperidine]	58 nM
COc1ccccc1-c1noc(-c2ccc(N3CCCC(F)(F)C3)c(N(S(C)(=O)=O)S(C)(=O)=O)c2)n1 [Compound I37, N-dimethanesulfonyl-2-(3,3-difluoropiperidin-1-yl)-5-{3-[2-(methoxy)phenyl]-1,2,4-oxadiazol-5-yl}aniline]	921 nM
CC1CCC(C)N1c1ccc(-c2nc(-c3ccccc3OC(F)(F)F)no2)cc1[N+](=O)[O-] (stereo not shown) [Compound I38, 5-[4-(2,5-dimethylpyrrolidin-1-yl)-3-nitrophenyl]-3-[2-(trifluoromethoxy)phenyl]-1,2,4-oxadiazole]	4470 nM
COc1ccc(F)cc1-c1noc(-c2ccc(N3C(C)CCC3C)c([N+](=O)[O-])c2)n1 (stereo not shown) [Compound I39, 5-[4-(2,5-dimethylpyrrolidin-1-yl)-3-nitrophenyl]-3-(5-fluoro-2-methoxyphenyl)-1,2,4-oxadiazole]	267 nM
COc1ccccc1-c1noc(-c2ccc(-c3ccccc3OC)c(C)c2)n1 [Compound I40, 5-(2′-methoxy-2-methylbiphenyl-4-yl)-3-(2-methoxyphenyl)-1,2,4-oxadiazole]	27 nM
Nc1cc(-c2nc(-c3ccccc3OC(F)(F)F)no2)ccc1N1CCCC(F)(F)C1 [Compound I41, 2-(3,3-difluoropiperidin-1-yl)-5-{3-[2-(trifluoromethoxy)phenyl]-1,2,4-oxadiazol-5-yl}aniline]	116 nM
COc1ccccc1-c1noc(-c2ccc(N3C(C)CCC3C)c([N+](=O)[O-])c2)n1 (stereo not shown) [Compound I42, 5-[4-(2,5-dimethylpyrrolidin-1-yl)-3-nitrophenyl]-3-(2-methoxyphenyl)-1,2,4-oxadiazole]	1250 nM
CS(=O)(=O)Nc1cc(-c2nc(-c3ccccc3OC(F)(F)F)no2)ccc1N1CCCC(F)(F)C1 [Compound I43, N-(2-(3,3-difluoropiperidin-1-yl)-5-{3-[2-(trifluoromethoxy)phenyl]-1,2,4-oxadiazol-5-yl}phenyl)methanesulfonamide]	39 nM

Compound	EC50
COc1ccccc1-c1noc(-c2ccc(-c3ccccc3C)c(OC)c2)n1 [Compound I46, 5-(2-methoxy-2′-methylbiphenyl-4-yl)-3-(2-methoxyphenyl)-1,2,4-oxadiazole]	33 nM
COc1ccc(-c2ccc(-c3nc(-c4ccccc4OC)no3)cc2C)c(OC)c1 [Compound I47, 5-(2′,4′-dimethoxy-2-methylbiphenyl-4-yl)-3-(2-methoxyphenyl)-1,2,4-oxadiazole]	1200 nM
Cc1cc(-c2nc(-c3ccccc3OC(F)(F)F)no2)ccc1-c1c(C)noc1C [Compound I49, 5-[4-(3,5-dimethylisoxazol-4-yl)-3-methylphenyl]-3-[2-(trifluoromethoxy)phenyl]-1,2,4-oxadiazole]	191 nM
COc1ccccc1-c1noc(-c2ccc(-c3c(C)noc3C)c(C)c2)n1 [Compound I50, 5-[4-(3,5-dimethylisoxazol-4-yl)-3-methylphenyl]-3-(2-methoxyphenyl)-1,2,4-oxadiazole]	172 nM
COCCN(CCOC)c1ccc(-c2nc(-c3cc(F)ccc3OC)no2)cc1[N+](=O)[O-] [Compound I51, 4-[3-(5-fluoro-2-methoxyphenyl)-1,2,4-oxadiazol-5-yl]-N,N-bis(2-methoxyethyl)-2-nitroaniline]	85 nM
COCCN(CCOC)c1ccc(-c2nc(-c3ccccc3OC)no2)cc1[N+](=O)[O-] [Compound I52, N,N-bis(2-methoxyethyl)-4-[3-(2-methoxyphenyl)-1,2,4-oxadiazol-5-yl]-2-nitroaniline]	295 nM
COc1ccc(-c2ccc(-c3nc(-c4ccccc4OC(F)(F)F)no3)cc2C)c(OC)c1 [Compound I56, 5-(2′,4′-dimethoxy-2-methylbiphenyl-4-yl)-3-[2-(trifluoromethoxy)phenyl]-1,2,4-oxadiazole]	302 nM
Cc1cc(-c2nc(-c3ccccc3OC(F)(F)F)no2)ccc1N1CCCCC1 [Compound I58, 1-(2-methyl-4-{3-[2-(trifluoromethoxy)phenyl]-1,2,4-oxadiazol-5-yl}phenyl)piperidine]	39 nM
COc1ccccc1-c1noc(-c2ccc(N3CCCCC3)c(C(F)(F)F)c2)n1 [Compound I59, 1-[4-[3-(2-methoxyphenyl)-1,2,4-oxadiazol-5-yl]-2-(trifluoromethyl)phenyl]piperidine]	21 nM
COc1ccccc1-c1noc(-c2ccc(N3CCOCC3)c(C)c2)n1 [Compound I64, 4-{4-[3-(2-methoxyphenyl)-1,2,4-oxadiazol-5-yl]-2-methylphenyl}morpholine]	98 nM
Cc1cc(-c2nc(-c3ccccc3OC(F)(F)F)no2)ccc1N1CCOCC1 [Compound I65, 4-(2-methyl-4-{3-[2-(trifluoromethoxy)phenyl]-1,2,4-oxadiazol-5-yl}phenyl)morpholine]	130 nM
COc1ccc(F)cc1-c1noc(-c2ccc(N3CCOCC3)c(C)c2)n1 [Compound I66, 4-{4-[3-(5-fluoro-2-methoxyphenyl)-1,2,4-oxadiazol-5-yl]-2-methylphenyl}morpholine]	28 nM
COc1ccccc1-c1noc(-c2ccc(N3CCCCC3)c(C)c2)n1 [Compound I67, 1-{4-[3-(2-methoxyphenyl)-1,2,4-oxadiazol-5-yl]-2-methylphenyl}piperidine]	24 nM
COc1ccc(F)cc1-c1noc(-c2ccc(N3CCCCC3)c(C)c2)n1 [Compound I68, 1-{4-[3-(5-fluoro-2-methoxyphenyl)-1,2,4-oxadiazol-5-yl]-2-methylphenyl}piperidine]	10 nM
COc1ccc(F)cc1-c1noc(-c2ccc(-c3cccnc3C)c(C)c2)n1 [Compound I73, 3-{4-[3-(5-fluoro-2-methoxyphenyl)-1,2,4-oxadiazol-5-yl]-2-methylphenyl}-2-methylpyridine]	341 nM
COc1ccc(F)cc1-c1noc(-c2ccc(N3CCCCC3C)nc2)n1 (stereo not shown) [Compound I75, 5-[3-(5-fluoro-2-methoxyphenyl)-1,2,4-oxadiazol-5-yl]-2-(2-methylpiperidin-1-yl)pyridine]	1190 nM
COCC1CCCN1c1ncc(-c2nc(-c3cc(F)ccc3OC)no2)cc1C (stereo not shown) [Compound I76, 5-[3-(5-fluoro-2-methoxyphenyl)-1,2,4-oxadiazol-5-yl]-2-[2-(methoxymethyl)pyrrolidin-1-yl]-3-methylpyridine]	522 nM
COc1ccc(F)cc1-c1noc(-c2ccc(-c3ccccc3C)c(C(=O)O)c2)n1 [Compound I79, 4-[3-(5-fluoro-2-methoxyphenyl)-1,2,4-oxadiazol-5-yl]-2′-methylbiphenyl-2-carboxylic acid]	657 nM
